The results in this text go back to BindingDB's records for doi:10.1080/14756360701342532 (Chinese Academy of Medical Sciences, 2008).

This assay deals with T1, Seed linoleate 13S-lipoxygenase-1 (Glycine max, UniProt P08170).
T1 sequence (P08170 whole entry): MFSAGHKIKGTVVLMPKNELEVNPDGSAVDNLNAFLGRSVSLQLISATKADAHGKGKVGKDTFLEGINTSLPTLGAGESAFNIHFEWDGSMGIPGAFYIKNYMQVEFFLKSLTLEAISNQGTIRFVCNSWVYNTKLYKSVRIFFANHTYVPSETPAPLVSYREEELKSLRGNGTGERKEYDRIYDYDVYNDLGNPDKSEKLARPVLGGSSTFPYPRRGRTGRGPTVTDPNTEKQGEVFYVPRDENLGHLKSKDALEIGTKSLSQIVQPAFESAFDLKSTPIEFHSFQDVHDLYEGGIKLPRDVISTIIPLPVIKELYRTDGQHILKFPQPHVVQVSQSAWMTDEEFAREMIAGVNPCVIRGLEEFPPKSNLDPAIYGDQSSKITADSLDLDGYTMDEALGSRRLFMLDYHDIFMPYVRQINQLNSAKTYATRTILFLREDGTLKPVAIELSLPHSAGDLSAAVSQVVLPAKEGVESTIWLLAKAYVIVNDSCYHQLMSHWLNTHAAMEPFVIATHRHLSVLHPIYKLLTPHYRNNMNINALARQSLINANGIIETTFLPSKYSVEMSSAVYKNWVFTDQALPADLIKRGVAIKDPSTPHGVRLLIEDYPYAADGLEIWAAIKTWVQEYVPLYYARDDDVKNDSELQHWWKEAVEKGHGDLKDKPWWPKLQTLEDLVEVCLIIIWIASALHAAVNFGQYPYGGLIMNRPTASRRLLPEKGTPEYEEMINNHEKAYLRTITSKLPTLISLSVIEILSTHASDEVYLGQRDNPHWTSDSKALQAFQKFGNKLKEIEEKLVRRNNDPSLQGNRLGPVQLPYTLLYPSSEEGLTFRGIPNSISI
Put plainly: Inhibition Assay. Particulars: pH 8; 25 °C. How it is done: Lipoxygenase inhibiting activity was measured by slightly modifying the spectrometric method. Lipoxygenase type I-B and linoleic acid were purchased from Sigma.
In the case of `COC(=O)[C@@H]1C2C=C[C@@]3(O)CO[C@@H](O[C@@H]1O)C23` (stereo partly drawn) [Beta-gardiol, 5], the IC50 – broadly, the concentration that inhibits the measured activity by half – is 47.3 µM. In other words, the double-digit micromolar range.
With `COc1ccc(/C=C/C(=O)OC2C(C)OC(O[C@@H]3C=C(CO)C4C3C=CO[C@H]4OC3OC(CO)C(O)C(O)C3O)C(OC(C)=O)C2O)cc1` (some centres not stated) [Buddlejoside A2, 6] the figure was 41.9 µM; with `COc1ccc(/C=C/C(=O)OC2C(O)C(C)OC(O[C@H]3C4C=CO[C@@H](OC5OC(CO)C(O)C(O)C5O)C4[C@@]4(CO)O[C@@H]34)C2OC(C)=O)cc1` (some centres not stated) [Buddlejoside A5, 7], 40.4 µM.
`O=C(OCC1=C[C@@H](O)[C@@H]2C=CO[C@@H](OC3OC(CO)C(O)C(O)C3O)[C@H]12)c1ccc(O)cc1` (some centres not stated) [Buddlejoside A, 1] returned an IC50 of 44.3 µM.
Under `O=C(OCC1=C[C@@H](O)[C@@H]2C=CO[C@@H](OC3OC(CO)C(O)C(O)C3O)[C@H]12)c1ccc(O)c(O)c1` (some centres not stated) [Buddlejoside B, 2] stands 39.7 µM.
Turning to `CC(C)CC(=O)OCC1=C[C@@H](O)[C@@H]2C=CC[C@H](OC3OC(CO)C(O)C(O)C3O)[C@H]12` (some centres not stated) [Buddlejoside C, 3], the IC50 turned out to be 52.5 µM.
`COC(=O)C1=CO[C@@H](O)C2C(CO)C=CC12` (some centres not stated) [Genipin, 4] displayed an IC50 of 49.6 µM.
